≈ marks a conversion by molar mass, not a printed value.
What was measured:
Test in all cases: In vitro antibacterial evaluation: minimum inhibitory concentration (MIC), broth dilution method
Type in all cases: cell-based
Staphylococcus sp. = conditions: broth dilution, 18 hours at 35° C.
Outline: (§1)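 Susceptibility determined by NCCLS-recommended broth dilution (M7-A2), Muller-Hinton II […]. Concentration span 64-0.06 μg/mL, inoculum 5×10^5 CFU/mL. Isolates include strains resistant to methicillin, penicillin and/or vancomycin.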

Enterococcus sp. = system: Enterococcus sp.
Outline: as §1

Streptococcus sp. = system: Streptococcus sp.
Outline: as §1

Escherichia coli = system: Escherichia coli
Outline: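 Broth dilution per NCCLS M7-A2 in Muller-Hinton II […], inoculum 5×10^5 CFU/mL, antibiotic tested over 64-0.06 μg/mL. MIC is taken as the lowest concentration that inhibits growth. Panel includes recent clinical isolates resistant to methicillin, penicillin and/or vancomycin.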

[1] = broth dilution, inoculum 5×10^5 CFU/mL, 18 hours at 35° C.

MIC Coagulase Negative Staphylococcus (GC 4547) (Staphylococcus sp.; 5×10^5 CFU/mL): 32 µg/mL (≈ 21.7 µM)
MIC Coagulase Negative Staphylococcus (GC 4548) (Staphylococcus sp.; 5×10^5 CFU/mL): 32 µg/mL (≈ 21.7 µM)
MIC Coagulase Negative Staphylococcus (GC 4549) (Staphylococcus sp.; 5×10^5 CFU/mL): 16 µg/mL (≈ 10.9 µM)
MIC Coagulase Negative Staphylococcus (GC 4551) (Staphylococcus sp.; 5×10^5 CFU/mL): >64 µg/mL
MIC Coagulase Negative Staphylococcus (GC 6257) (Staphylococcus sp.; 5×10^5 CFU/mL): 8 µg/mL (≈ 5.43 µM)
MIC Staphylococcus aureus (ATCC 29213) (Staphylococcus sp.; 5×10^5 CFU/mL): 32 µg/mL (≈ 21.7 µM)
MIC Staphylococcus aureus (GC 1131) (Staphylococcus sp.; 5×10^5 CFU/mL): 32 µg/mL (≈ 21.7 µM)
MIC Staphylococcus aureus (GC 3051) (Staphylococcus sp.; 5×10^5 CFU/mL): 32 µg/mL (≈ 21.7 µM)
MIC Staphylococcus aureus (GC 3053) (Staphylococcus sp.; 5×10^5 CFU/mL): >64 µg/mL
MIC Staphylococcus aureus (GC 4541) (Staphylococcus sp.; 5×10^5 CFU/mL): 32 µg/mL (≈ 21.7 µM)
MIC Staphylococcus aureus (GC 4542) (Staphylococcus sp.; 5×10^5 CFU/mL): 32 µg/mL (≈ 21.7 µM)
MIC Staphylococcus aureus (GC 4544) (Staphylococcus sp.; 5×10^5 CFU/mL): 32 µg/mL (≈ 21.7 µM)
MIC Staphylococcus aureus (GC 4545) (Staphylococcus sp.; 5×10^5 CFU/mL): 32 µg/mL (≈ 21.7 µM)
MIC Staphylococcus aureus-SMITH (GC 4543) (Staphylococcus sp.; 5×10^5 CFU/mL): 32 µg/mL (≈ 21.7 µM)
MIC Staphylococcus aureus (ATCC 29213) (Staphylococcus sp.; strain ATCC 29213): 32 µg/mL (≈ 21.7 µM)
MIC Staphylococcus aureus (GC 1131) (Staphylococcus sp.; strain GC 1131): 32 µg/mL (≈ 21.7 µM)
MIC Staphylococcus aureus (GC 3051) (Staphylococcus sp.; strain GC 3051): 32 µg/mL (≈ 21.7 µM)
MIC Staphylococcus aureus (GC 3053) (Staphylococcus sp.; strain GC 3053): >64 µg/mL
MIC Staphylococcus aureus (GC 4541) (Staphylococcus sp.; strain GC 4541): 32 µg/mL (≈ 21.7 µM)
MIC Staphylococcus aureus (GC 4542) (Staphylococcus sp.; strain GC 4542): 32 µg/mL (≈ 21.7 µM)
MIC Staphylococcus aureus (GC 4544) (Staphylococcus sp.; strain GC 4544): 32 µg/mL (≈ 21.7 µM)
MIC Staphylococcus aureus (GC 4545) (Staphylococcus sp.; strain GC 4545): 32 µg/mL (≈ 21.7 µM)
MIC Enterococcus avium (GC 4558) (Enterococcus sp.; [1]): >64 µg/mL
MIC Enterococcus faecalis (ATCC 29212) (Enterococcus sp.; [1]): >64 µg/mL
MIC Enterococcus faecalis (GC 2242) (Enterococcus sp.; [1]): >64 µg/mL
MIC Enterococcus faecalis (GC 2691) (Enterococcus sp.; [1]): >64 µg/mL
MIC Enterococcus faecalis (GC 3059) (Enterococcus sp.; [1]): >64 µg/mL
MIC Enterococcus faecalis (GC 4552) (Enterococcus sp.; [1]): >64 µg/mL
MIC Enterococcus faecalis (GC 4553) (Enterococcus sp.; [1]): >64 µg/mL
MIC Enterococcus faecalis (GC 4554) (Enterococcus sp.; [1]): >64 µg/mL
MIC Enterococcus faecalis (GC 6189) (Enterococcus sp.; [1]): >64 µg/mL
MIC Enterococcus faecium (GC 2243) (Enterococcus sp.; [1]): >64 µg/mL
MIC Enterococcus faecium (GC 4556) (Enterococcus sp.; [1]): >64 µg/mL
MIC Enterococcus faecium (GC 4557) (Enterococcus sp.; [1]): 32 µg/mL (≈ 21.7 µM)
MIC Enterococcus faecalis (ATCC 29212) (Enterococcus sp.; strain ATCC 29212): >64 µg/mL
MIC Enterococcus faecalis (GC 2242) (Enterococcus sp.; strain GC 2242): >64 µg/mL
MIC Enterococcus faecium (GC 2243) (Enterococcus sp.; strain GC 2243): >64 µg/mL
MIC Enterococcus faecalis (GC 2691) (Enterococcus sp.; strain GC 2691): >64 µg/mL
MIC Enterococcus faecalis (GC 3059) (Enterococcus sp.; strain GC 3059): >64 µg/mL
MIC Enterococcus faecalis (GC 4552) (Enterococcus sp.; strain GC 4552): >64 µg/mL
MIC Enterococcus faecalis (GC 4553) (Enterococcus sp.; strain GC 4553): >64 µg/mL
MIC Enterococcus faecalis (GC 4554) (Enterococcus sp.; strain GC 4554): >64 µg/mL
MIC Enterococcus faecium (GC 4556) (Enterococcus sp.; strain GC 4556): >64 µg/mL
MIC Enterococcus faecium (GC 4557) (Enterococcus sp.; strain GC 4557): 32 µg/mL (≈ 21.7 µM)
MIC Enterococcus avium (GC 4558) (Enterococcus sp.; strain GC 4558): >64 µg/mL
MIC Enterococcus faecalis (GC 6189) (Enterococcus sp.; strain GC 6189): >64 µg/mL
MIC Streptococcus agalactiae (GC 4564) (Streptococcus sp.; [1]): 32 µg/mL (≈ 21.7 µM)
MIC Streptococcus pneumoniae (ATCC 6301) (Streptococcus sp.; [1]): 8 µg/mL (≈ 5.43 µM)
MIC Streptococcus pneumoniae (GC 1894) (Streptococcus sp.; [1]): 8 µg/mL (≈ 5.43 µM)
MIC Streptococcus pneumoniae (GC 4565) (Streptococcus sp.; [1]): 8 µg/mL (≈ 5.43 µM)
MIC Streptococcus pyogenes (GC 4563) (Streptococcus sp.; [1]): 16 µg/mL (≈ 10.9 µM)
MIC Streptococcus pneumoniae (ATCC 6301) (Streptococcus sp.; strain ATCC 6301): 8 µg/mL (≈ 5.43 µM)
MIC Streptococcus pneumoniae (GC 1894) (Streptococcus sp.; strain GC 1894): 8 µg/mL (≈ 5.43 µM)
MIC Streptococcus pyogenes (GC 4563) (Streptococcus sp.; strain GC 4563): 16 µg/mL (≈ 10.9 µM)
MIC Streptococcus agalactiae (GC 4564) (Streptococcus sp.; strain GC 4564): 32 µg/mL (≈ 21.7 µM)
MIC Streptococcus pneumoniae (GC 4565) (Streptococcus sp.; strain GC 4565): 8 µg/mL (≈ 5.43 µM)
MIC Escherichia coli (ATCC 25922) (Escherichia coli; strain ATCC 25922): >64 µg/mL
MIC Escherichia coli (GC 4559) (Escherichia coli; strain GC 4559): >64 µg/mL
MIC Escherichi coli (GC 4560) (Escherichia coli; strain GC 4560): 8 µg/mL (≈ 5.43 µM)
SMILES: COc1cc(C2OCC3OC(OC4C(CO)OC(Oc5ccc(CC6NC(=O)C(C(C)c7ccccc7)NC(=O)CNC(=O)C(CO)NC(=O)C(C(O)C7CNC(=N)N7C7OC(CO)C(O)C(O)C7O)NC(=O)C(C(O)C7CNC(=N)N7)NC6=O)cc5)C(O)C4O)C(O)C(O)C3O2)cc([N+](=O)[O-])c1O (stereo not drawn) [Example 169, Cyclo[glycyl-β-methylphenylalanyl-O-[4-O-[4,6-O-(4-hydroxy-3-methoxy-4-nitro-benzylidene)hexopyranosyl]hexopyranosyl]tyrosyl-3-(2-iminoimidazolidin-4-yl)seryl-3-(3-hexopyranosyl-2-iminoimidazolidin-4-yl)serylseryl]]
MIC Staphylococcus haemolyticus (GC 4546) (Staphylococcus sp.; 5×10^5 CFU/mL): 32 µg/mL (≈ 21.7 µM)

Source: US8247211B2, “Glycopeptide antibiotics” (American Cyanamid Company, priority 2001, dated 2012)
